Experimental data reported in patent US20120012499A1, “TABLET FORMULATION” (Novo Nordisk A/S, priority 2006, published 2012).
Values after ≈ are worked out from the molar mass of the structure shown.

Test: solubility of drug substance in pH 5.0 buffer solution
Type: physicochemical
Settings: aqueous buffer

**Q.** For `CCOc1cc(CC(=O)N[C@@H](CC(C)C)c2ccccc2N2CCCCC2)ccc1C(=O)O` [repaglinide, (S)-2-Ethoxy-4-[2-[[3-methyl-1-[2-(1-piperidinyl)phenyl]butyl]amino]-2-oxoethyl]benzoic acid], which solubility is on record?
**A.** Its solubility is 9 µg/mL (≈ 19.9 µM).
